{"source": "patent US6184246A", "about": "“Inhibition of cytokine production by polymethoxylated flavones” (priority 1999, dated 2001)", "key": {"TNFα mRNA": {"test_system": "TNFα mRNA", "test": "TNFα mRNA level by RT-PCR in LPS-stimulated monocytes", "assay_type": "cell-based, human", "details": "graded concentrations, 20 ng/mL LPS, 90 min, GAPDH internal standard", "method": "Primary elutriated human monocytes were cultured in the presence of graded concentrations of HMF for 30 min. The monocyte cultures were then adjusted to contain 20 ng/mL LPS. At 90 min of culture, monocytes were harvested by centrifugation, and RNA was isolated from the cell pellet. Relative levels of TNFα and the constitutively expressed glyceraldehyde 3-phosphate dehydrogenase (GAPDH) mRNA were determined by RT-PCR as described below.\nAnalysis of specific mRNA levels by reverse transcriptase-polymerase chain reaction (RT-PCR): Monocytes were purified from PBMC by centrifugal elutriation. Monocytes were resuspended to 5×10^6 /mL in complete medium and 2 mL of cell suspension were dispensed into FALCON 17×100 mm polypropylene culture tubes (Becton Dickinson). Cultures were adjusted to contain graded concentrations of HMF and cultured 30 min at 37° C. and 5% CO2. Cultures were then adjusted to contain 20 ng/mL LPS for an additional 90 min. […] Relative levels of TNFα and IL-1β mRNA were then measured by RT-PCR as previously described (Manthey, C. L., J. Leuk Biol. 1998, 64: 409-416). […] Radiolabeled products were resolved by agarose gel electrophoresis and quantified using a PhosphorImager (Molecular Dynamics, Sunnyvale, Calif.). […]"}, "IL-8": {"test_system": "IL-8", "test": "IL-8 production by LPS-stimulated human monocytes (ELISA)", "assay_type": "cell-based", "method": "(§1) Adherent purified human monocytes were cultured in the presence of graded concentrations of heptamethoxyflavone for 30 min. The monocyte cultures were then adjusted to contain 20 ng/mL LPS. After 14 h of culture, the cytokines TNFα, IL-6, IL-8, MIP-1α, and IL-10 were assayed in the culture supernatants and IL-1β was assayed in the cell lysates using specific ELISA assays as described below. Values expressed as the percent of cytokine produced in flavone-free cultures are the means and standard errors determined using monocytes isolated from three independent donors.\n(§2) Isolation of human peripheral blood monocytes: Peripheral blood mononuclear cells (PBMCs) were isolated from residual source leukocytes (Bonfils Blood Center, CO) by density gradient centrifugation using Ficoll-Paque Plus (Pharmacia, Sweden). Monocytes were purified further by plastic adherence (see below) or by centrifugal elutriation as described previously (Manthey, C. L., et al., J. Leuk Biol., 64: 409-416 (1998)).\n(§3) IL-1β was measured in cell lysates by ELISA."}, "MIP-1α": {"test_system": "MIP-1α", "test": "MIP-1α production by LPS-stimulated human monocytes (ELISA)", "assay_type": "cell-based", "method": "as §1, §2, §3"}, "[1]": {"test_system": "type-IV phosphodiesterase semi-purified from U937 cells", "test": "Phosphodiesterase cAMP SPA enzyme assay", "assay_type": "biochemical", "details": "hydrolysis of cAMP; read-out: concentration inhibiting phosphodiesterase activity 50%", "method": "PDE semipurified from U937 monocytic cells was evaluated for the ability to catalyze the hydrolysis of cAMP in the presence of graded concentrations of flavone, myricetin, and HMF as described below. The rates are plotted as percent of control-reactions, where no flavonoids were present. Testing flavones as phosphodiesterase inhibitors and inducers of cellular cyclic adenosine monophosphate (cAMP): The Phosphodiesterase cAMP SPA Enzyme Assay (Amersham, Arlington Heights, Ill.) was used to test the ability of flavones to inhibit cAMP hydrolysis catalyzed by phosphodiesterase. The phosphodiesterase used in this study was semi-purified from U937 cells, and was determined to be mostly the type-IV isoform based on sensitivity to selected isoform inhibitors (Trophy, T. J., J. Pharmacol. Experimental Therapeutics, 1195-1205 (1992))."}, "IL-1β mRNA": {"test_system": "IL-1β mRNA", "test": "IL-1β mRNA level by RT-PCR in LPS-stimulated monocytes", "assay_type": "cell-based, human", "details": "data not shown", "method": "Analysis of specific mRNA levels by reverse transcriptase-polymerase chain reaction (RT-PCR): Monocytes were purified from PBMC by centrifugal elutriation. Monocytes were resuspended to 5×10^6 /mL in complete medium and 2 mL of cell suspension were dispensed into FALCON 17×100 mm polypropylene culture tubes (Becton Dickinson). Cultures were adjusted to contain graded concentrations of HMF and cultured 30 min at 37° C. and 5% CO2. Cultures were then adjusted to contain 20 ng/mL LPS for an additional 90 min. Culture media was then removed and monocytes were lysed in RNAzol (Teltext Inc., Friendswood, Tex.) and total RNA was isolated according to the manufacturer's instructions. Relative levels of TNFα and IL-1β mRNA were then measured by RT-PCR as previously described (Manthey, C. L., J. Leuk Biol. 1998, 64: 409-416). PCR was carried out in the presence of [α-^32 P]dCTP. Radiolabeled products were resolved by agarose gel electrophoresis and quantified using a PhosphorImager (Molecular Dynamics, Sunnyvale, Calif.). For these reactions, the following primer sets were used:\nIL-1β, (5'): GACACATGGGATAACGAGGCT, (3'): ACGCAGGACAGGTACAGATTC."}, "intracellular cAMP": {"test_system": "intracellular cAMP", "test": "Cellular cAMP in human monocytes (EIA)", "assay_type": "cell-based", "details": "100 μM, 30 min", "method": "To test flavones for the ability to cause an increase in cellular cAMP, monocytes were purified from PBMC by centrifugal elutriation. Monocytes were resuspended to 5×10^6 /mL in complete medium and 2 mL cell suspension were dispensed into FALCON 17×100 mm polypropylene culture tubes (Becton Dickinson). The cells were precultured 2 h at 37° C. and 5% CO2, and then cultured an additional 30 min following adjusting culture media to contain 100 μM of the flavone of interest or 200 μM IBMX (3-isobutyl-1-methylxanthine). Cells were then collected by centrifugation, lysed in 300 μL of ice cold aqueous solution containing 10 mM HEPES (pH 7.6) and 1% NP40. The lysates were applied to 100 mg columns of Amprep SAX resin (Amersham). The columns were then rinsed with 1 mL of methanol and the cAMP was eluted in 600 μL of methanol containing 0.01 M HCl. The eluates were chilled on dry ice and dried under vacuum. The Amersham Biotrak cAMP EIA assay was used to measure cAMP content of residues resuspended in 400 μL of assay buffer."}, "IL-10": {"test_system": "IL-10", "test": "IL-10 production by LPS-stimulated human monocytes (ELISA)", "assay_type": "cell-based", "method": "as §1, §2, §3"}, "IL-1β": {"test_system": "IL-1β", "test": "IL-1β production by LPS-stimulated human monocytes (ELISA, cell lysates)", "assay_type": "cell-based", "method": "as §1, §2, §3"}, "IL-6": {"test_system": "IL-6", "test": "IL-6 production by LPS-stimulated human monocytes (ELISA)", "assay_type": "cell-based", "method": "as §1, §2, §3"}, "TNFα": {"test_system": "TNFα", "test": "TNFα production by LPS-stimulated human monocytes (ELISA)", "assay_type": "cell-based", "method": "Isolation of human peripheral blood monocytes: Peripheral blood mononuclear cells (PBMCs) were isolated from residual source leukocytes (Bonfils Blood Center, CO) by density gradient centrifugation using Ficoll-Paque Plus (Pharmacia, Sweden).\nTo measure the impact of the flavones on cytokine production, PBMCs were resuspended to 4×10^6 /mL in complete medium, i.e., Dulbecco's Modified Eagle Medium containing 30% FCS, 2 mM glutamine, 100 U/mL Penicillin-G, and 100 μg/mL streptomycin. […] Nonadherent cells (lymphocytes) were separated from the plastic adherent cells (monocytes) by washing the wells twice with 200 μL of medium. The monocytes were cultured an additional 30 min in 100 μL of complete medium containing graded concentrations of the compound of interest and the cultures were then adjusted to contain […] LPS to stimulate cytokine production. Culture supernatants were harvested 14 h later, and cells were lysed by addition of 50 μL of Dulbecco's phosphate buffered saline containing 1% NP40. Culture supernatants were evaluated for TNFα, IL-1β, IL-6, IL-8, IL-10, and MIP-1α content using specific enzyme-linked immunosorbent assays (ELISA) purchased from R&D Systems. IL-1β was measured in cell lysates by ELISA. Lactate dehydrogenase (LDH) content of cell lysates was measured to determine compound effects on cell viability: To 50 μL of lysate were added 200 μL of 50 mM sodium pyrophosphate buffer (pH 8.9) containing 50 mM lactic acid and 4 mg/mL β-nicotinamide adenine dinucleotide (Sigma); rates of reduction of nicotinamide adenine dinucleotide were measured at room temperature at 340 nm."}, "[2]": {"details": "cytokine suppression profile, HMF compared against IBMX (Table 2)"}}, "note": "“Also recorded” adds a separate entry of the source."}
{"smiles": "COc1ccc(-c2oc3c(OC)c(OC)c(OC)c(OC)c3c(=O)c2OC)cc1OC", "note": "[HMF, 3,5,6,7,8,3',4'-heptamethoxyflavone]", "values": [{"measurement": "suppression of lipopolysaccharide-induced TNFα mRNA expression", "setting": "TNFα mRNA", "result": "suppress; also recorded: selectively blocks"}, {"measurement": "inhibition of lipopolysaccharide-induced expression of IL-8", "setting": "IL-8; 100 μM", "result": "no inhibition"}, {"measurement": "suppression of IL-8 production", "setting": "IL-8; [2]", "result": "neither suppressed"}, {"measurement": "inhibition of MIP-1α production (in words)", "setting": "MIP-1α; LPS-stimulated human monocytes", "result": "potent inhibitor"}, {"measurement": "IC50", "setting": "MIP-1α; Monocyte, monocytes from three independent human donors, LPS, 14 h, read-out: IC50 for inhibition of MIP-1α", "result": "7.3 ± 0.7", "unit": "µM"}, {"measurement": "IC50", "setting": "[1]", "result": 2, "unit": "µM"}, {"measurement": "induction of IL-1β mRNA", "setting": "IL-1β mRNA", "result": "not effected"}, {"measurement": "increase of monocyte cAMP levels over media alone (in words)", "setting": "intracellular cAMP", "result": "at least a doubling"}, {"measurement": "intracellular cAMP level", "setting": "intracellular cAMP; media alone 2.7±0.9", "result": "5.7±1.8", "unit": "pmol/10^7 cells"}, {"measurement": "inhibition of IL-10 production (in words)", "setting": "IL-10; LPS-stimulated human monocytes", "result": "potent inhibitor; also recorded: inhibition"}, {"measurement": "IC50", "setting": "IL-10; Monocyte, monocytes from three independent human donors, LPS, 14 h, read-out: IC50 for inhibition of IL-10", "result": "12.3 ± 3.5", "unit": "µM"}, {"measurement": "inhibition of lipopolysaccharide-induced expression of IL-1β", "setting": "IL-1β; 100 μM", "result": "no inhibition"}, {"measurement": "suppression of IL-1β production", "setting": "IL-1β; [2]", "result": "neither suppressed"}, {"measurement": "inhibition of lipopolysaccharide-induced expression of IL-6", "setting": "IL-6; 100 μM", "result": "no inhibition"}, {"measurement": "activation at 100 µM", "setting": "IL-6; Homo sapiens, Monocyte, 14 h, 100 μM, read-out: increase of IL-6 expression", "result": 30, "unit": "%"}, {"measurement": "suppression of IL-6 production", "setting": "IL-6; [2]", "result": "neither suppressed"}, {"measurement": "inhibition of TNFα production (in words)", "setting": "TNFα; LPS-stimulated human monocytes", "result": "potent inhibitor"}, {"measurement": "IC50", "setting": "TNFα; Monocyte, human monocytes, 30 min preculture with compound, LPS, 14 h, 30% FCS, read-out: IC50 for inhibition of TNFα production", "result": 5, "unit": "µM"}]}
